Reference: patent US9630894B2, “Energy efficient method and apparatus for the extraction of biomolecules from dilute aqueous solution” (DYNASEP INC., priority 2012, dated 2017)
Each block holds one compound with its values, some of them ahead of it.

Assay: CCC extraction with DME of clarified fermentation broth from Clostridium acetobutylicum, GC and DNS assay
Assay type: physicochemical
Protocol: This example describes three different runs of the CCC with fermentation broth from Clostridium acetobutylicum. […] The fermentation was intentionally interrupted prior to completion.
The extraction column operated at room temperature (˜25° C.) throughout the column. Periodic extract and raffinate samples were taken and analyzed for the constituents in the extract and raffinate discharges.
This example describes three different runs. In all cases, the mass of solvent to the mass of feed ratio (S/F) was 0.9. In all example the fermentation broth was first centrifuged to removal all cellular matter. Thus, the feed solution was clarified. In the case of the first run, the following components were measured via gas chromatograph (GC) analysis using external standard calibration. The external standard was run prior to analyzing the samples to provide individual calibration between peak area and the respective constituent under measure. […] Acetate was the conjugate base of acetic acid. Butyrate was the conjugate base of butyric acid. All components were quantified in the extract and raffinate. Since the extract and raffinate are mostly water and DME dissolves in water to approximately 20 wt. %, the samples were allowed to degas over a 24 hour period.
During the run, samples were taken of the extract and raffinate. In the case of the extract, the bulk DME was removed by reduction of pressure and addition of heat to flash the DME from the water and other solution constituents.
Extract and raffinate samples were collected at periodic intervals during the CCC testing. […] Glucose was measured via a DNS (3,5-dinitrosalicylic acid) assay.
In cases where the extract formed a two phase solution, the extract samples were diluted with distilled water to create a single phase and homogenous sample prior to GC. The dilution factor was then used to correct the GC measurements for concentrations prior to dilution.

[1] = Run 3, Extract Bot, time 31 min
[2] = Run 3, Extract Bot, time 37 min
[3] = Run 3, Extract Top, time 31 min
[4] = Run 3, Extract Top, time 37 min

Compound: CC(=O)C(C)O (stereo not shown) [Acetoin]
concentration in sample [1]: 1640 µg/mL | concentration in sample [2]: 1880 µg/mL | concentration in sample [3]: 910 µg/mL | concentration in sample [4]: 1020 µg/mL | concentration in sample (Run 3, Extract, time 22 min): 960 µg/mL | concentration in sample (Run 3, Extract, time 27 min): 1000 µg/mL | concentration in sample (Run 3, Extract, time 43 min): 1830 µg/mL | concentration in sample (Run 3, Extract, time 70 min): 1620 µg/mL | concentration in sample (Run 3, Extract, time 74 min): 1460 µg/mL | concentration in sample (Run 3, Extract, time 78 min): 1600 µg/mL | concentration in sample (Run 3, Extract, time 82 min): 1650 µg/mL | concentration in sample (Run 3, Feed, time 0 min): 330 µg/mL | concentration in sample (Run 3, Raffinate, time 22 min): 70 µg/mL | concentration in sample (Run 3, Raffinate, time 27 min): 0 µg/mL | concentration in sample (Run 3, Raffinate, time 31 min): 0 µg/mL | concentration in sample (Run 3, Raffinate, time 37 min): 0 µg/mL | concentration in sample (Run 3, Raffinate, time 43 min): 0 µg/mL | concentration in sample (Run 3, Raffinate, time 70 min): 0 µg/mL | concentration in sample (Run 3, Raffinate, time 74 min): 0 µg/mL | concentration in sample (Run 3, Raffinate, time 78 min): 60 µg/mL | concentration in sample (Run 3, Raffinate, time 82 min): 0 µg/mL

Compound: CCO [Ethanol, ethanol]
concentration in sample [1]: 2290 µg/mL | concentration in sample [2]: 2590 µg/mL | concentration in sample [3]: 1980 µg/mL | concentration in sample [4]: 2110 µg/mL | concentration in sample (Run 3, Extract, time 22 min): 1130 µg/mL | concentration in sample (Run 3, Extract, time 27 min): 1530 µg/mL | concentration in sample (Run 3, Extract, time 43 min): 2110 µg/mL | concentration in sample (Run 3, Extract, time 70 min): 1850 µg/mL | concentration in sample (Run 3, Extract, time 74 min): 1710 µg/mL | concentration in sample (Run 3, Extract, time 78 min): 1700 µg/mL | concentration in sample (Run 3, Extract, time 82 min): 1920 µg/mL | concentration in sample (Run 3, Feed, time 0 min): 800 µg/mL | concentration in sample (Run 3, Raffinate, time 22 min): 340 µg/mL | concentration in sample (Run 3, Raffinate, time 27 min): 400 µg/mL | concentration in sample (Run 3, Raffinate, time 31 min): 420 µg/mL | concentration in sample (Run 3, Raffinate, time 37 min): 640 µg/mL | concentration in sample (Run 3, Raffinate, time 43 min): 890 µg/mL | concentration in sample (Run 3, Raffinate, time 70 min): 1560 µg/mL | concentration in sample (Run 3, Raffinate, time 74 min): 710 µg/mL | concentration in sample (Run 3, Raffinate, time 78 min): 240 µg/mL | concentration in sample (Run 3, Raffinate, time 82 min): 1140 µg/mL

Compound: CC(=O)O [acetate]
extraction into DME (Run 1, pH greater than 5.5): not extracted | concentration in sample [1]: 480 µg/mL | concentration in sample [2]: 0 µg/mL | concentration in sample [3]: 400 µg/mL | concentration in sample [4]: 370 µg/mL | concentration in sample (Run 3, Extract, time 22 min): 410 µg/mL | concentration in sample (Run 3, Extract, time 27 min): 0 µg/mL | concentration in sample (Run 3, Extract, time 43 min): 480 µg/mL | concentration in sample (Run 3, Extract, time 70 min): 400 µg/mL | concentration in sample (Run 3, Extract, time 74 min): 0 µg/mL | concentration in sample (Run 3, Extract, time 78 min): 550 µg/mL | concentration in sample (Run 3, Extract, time 82 min): 400 µg/mL | concentration in sample (Run 3, Feed, time 0 min): 5470 µg/mL | concentration in sample (Run 3, Raffinate, time 22 min): 6780 µg/mL | concentration in sample (Run 3, Raffinate, time 27 min): 5370 µg/mL | concentration in sample (Run 3, Raffinate, time 31 min): 6420 µg/mL | concentration in sample (Run 3, Raffinate, time 37 min): 6010 µg/mL | concentration in sample (Run 3, Raffinate, time 43 min): 7110 µg/mL | concentration in sample (Run 3, Raffinate, time 70 min): 6840 µg/mL | concentration in sample (Run 3, Raffinate, time 74 min): 7770 µg/mL | concentration in sample (Run 3, Raffinate, time 78 min): 7070 µg/mL | concentration in sample (Run 3, Raffinate, time 82 min): 7290 µg/mL

Compound: CCCC(=O)O [butyrate]
extraction into DME (Run 1, pH greater than 5.5): About half | concentration in sample [1]: 1570 µg/mL | concentration in sample [2]: 1240 µg/mL | concentration in sample [3]: 22090 µg/mL | concentration in sample [4]: 22520 µg/mL | concentration in sample (Run 3, Extract, time 22 min): 3520 µg/mL | concentration in sample (Run 3, Extract, time 27 min): 9290 µg/mL | concentration in sample (Run 3, Extract, time 43 min): 2210 µg/mL | concentration in sample (Run 3, Extract, time 70 min): 1710 µg/mL | concentration in sample (Run 3, Extract, time 74 min): 1380 µg/mL | concentration in sample (Run 3, Extract, time 78 min): 3010 µg/mL | concentration in sample (Run 3, Extract, time 82 min): 1880 µg/mL | concentration in sample (Run 3, Feed, time 0 min): 1710 µg/mL | concentration in sample (Run 3, Raffinate, time 22 min): 50780 µg/mL | concentration in sample (Run 3, Raffinate, time 27 min): 19520 µg/mL | concentration in sample (Run 3, Raffinate, time 31 min): 880 µg/mL | concentration in sample (Run 3, Raffinate, time 37 min): 880 µg/mL | concentration in sample (Run 3, Raffinate, time 43 min): 880 µg/mL | concentration in sample (Run 3, Raffinate, time 70 min): 950 µg/mL | concentration in sample (Run 3, Raffinate, time 74 min): 970 µg/mL | concentration in sample (Run 3, Raffinate, time 78 min): 870 µg/mL | concentration in sample (Run 3, Raffinate, time 82 min): 930 µg/mL

Further lines, with some results ahead:

distribution coefficients compared (Run 2, isobutanol versus butanol): approximately equal | Ratio of I/N (isobutanol/n-butanol) [1]: 1.16 | concentration in sample [1]: 39300 µg/mL | Ratio of I/N (isobutanol/n-butanol) [2]: 1.15 | concentration in sample [2]: 39690 µg/mL | Ratio of I/N (isobutanol/n-butanol) [3]: 1.04 | concentration in sample [3]: 316670 µg/mL | Ratio of I/N (isobutanol/n-butanol) [4]: 1.03 | concentration in sample [4]: 328990 µg/mL | Ratio of I/N (isobutanol/n-butanol) (Run 3, Extract, time 22 min): 0.98 | concentration in sample (Run 3, Extract, time 22 min): 18650 µg/mL | Ratio of I/N (isobutanol/n-butanol) (Run 3, Extract, time 27 min): 1.10 | concentration in sample (Run 3, Extract, time 27 min): 35800 µg/mL | Ratio of I/N (isobutanol/n-butanol) (Run 3, Extract, time 43 min): 1.07 | concentration in sample (Run 3, Extract, time 43 min): 35340 µg/mL | Ratio of I/N (isobutanol/n-butanol) (Run 3, Extract, time 70 min): 1.05 | concentration in sample (Run 3, Extract, time 70 min): 30950 µg/mL | Ratio of I/N (isobutanol/n-butanol) (Run 3, Extract, time 74 min): 1.02 | concentration in sample (Run 3, Extract, time 74 min): 31830 µg/mL | Ratio of I/N (isobutanol/n-butanol) (Run 3, Extract, time 78 min): 1.01 | concentration in sample (Run 3, Extract, time 78 min): 33190 µg/mL | Ratio of I/N (isobutanol/n-butanol) (Run 3, Extract, time 82 min): 1.02 | concentration in sample (Run 3, Extract, time 82 min): 37480 µg/mL | Ratio of I/N (isobutanol/n-butanol) (Run 3, Feed, time 0 min): 1.24 | concentration in sample (Run 3, Feed, time 0 min): 11650 µg/mL | Ratio of I/N (isobutanol/n-butanol) (Run 3, Raffinate, time 22 min): 1.34 | concentration in sample (Run 3, Raffinate, time 22 min): 2720 µg/mL | Ratio of I/N (isobutanol/n-butanol) (Run 3, Raffinate, time 27 min): 1.22 | concentration in sample (Run 3, Raffinate, time 27 min): 380 µg/mL | Ratio of I/N (isobutanol/n-butanol) (Run 3, Raffinate, time 31 min): 1.28 | concentration in sample (Run 3, Raffinate, time 31 min): 380 µg/mL | Ratio of I/N (isobutanol/n-butanol) (Run 3, Raffinate, time 37 min): 1.29 | concentration in sample (Run 3, Raffinate, time 37 min): 230 µg/mL | Ratio of I/N (isobutanol/n-butanol) (Run 3, Raffinate, time 43 min): 1.42 | concentration in sample (Run 3, Raffinate, time 43 min): 230 µg/mL | Ratio of I/N (isobutanol/n-butanol) (Run 3, Raffinate, time 70 min): 1.37 | concentration in sample (Run 3, Raffinate, time 70 min): 430 µg/mL | Ratio of I/N (isobutanol/n-butanol) (Run 3, Raffinate, time 74 min): 1.45 | concentration in sample (Run 3, Raffinate, time 74 min): 480 µg/mL | Ratio of I/N (isobutanol/n-butanol) (Run 3, Raffinate, time 78 min): 1.41 | concentration in sample (Run 3, Raffinate, time 78 min): 480 µg/mL | Ratio of I/N (isobutanol/n-butanol) (Run 3, Raffinate, time 82 min): 1.44 | concentration in sample (Run 3, Raffinate, time 82 min): 480 µg/mL
Compound: CC(C)CO [isobutanol, 2-methyl-1-propanol]

concentration in sample [1]: 4740 µg/mL | concentration in sample [2]: 5780 µg/mL | concentration in sample [3]: 0 µg/mL | concentration in sample [4]: 0 µg/mL | concentration in sample (Run 3, Extract, time 22 min): 1460 µg/mL | concentration in sample (Run 3, Extract, time 27 min): 1440 µg/mL | concentration in sample (Run 3, Extract, time 43 min): 6200 µg/mL | concentration in sample (Run 3, Extract, time 70 min): 3940 µg/mL | concentration in sample (Run 3, Extract, time 74 min): 3870 µg/mL | concentration in sample (Run 3, Extract, time 78 min): 4810 µg/mL | concentration in sample (Run 3, Extract, time 82 min): 4950 µg/mL | concentration in sample (Run 3, Feed, time 0 min): 48470 µg/mL | concentration in sample (Run 3, Raffinate, time 22 min): 1390 µg/mL | concentration in sample (Run 3, Raffinate, time 27 min): 950 µg/mL | concentration in sample (Run 3, Raffinate, time 31 min): 47660 µg/mL | concentration in sample (Run 3, Raffinate, time 37 min): 41230 µg/mL | concentration in sample (Run 3, Raffinate, time 43 min): 48870 µg/mL | concentration in sample (Run 3, Raffinate, time 70 min): 42100 µg/mL | concentration in sample (Run 3, Raffinate, time 74 min): 44360 µg/mL | concentration in sample (Run 3, Raffinate, time 78 min): 48180 µg/mL | concentration in sample (Run 3, Raffinate, time 82 min): 43140 µg/mL
Compound: sugar
extraction into DME (Run 2): a significant portion of the sugar was not extracted
